Results on five compounds are retold here after patent US20080153822A1, “Methods of treating pain” (priority 2006, published 2008).

The subject of one experiment is CDKs. The following applies: Current Opinion in Pharmacology, 2003(3): 362-370; cited from earlier work.
Another experiment addresses T1, CDK9/CycT (Homo sapiens, UniProt P50750).
T1 construct: host or cells: Sf9 insect cells, baculovirus
The experiment can be described thus: In vitro kinase inhibition assay. The experiment is classed as biochemical. To be noted: 1 μM ATP, 33P FlashPlate assay. The procedure: IC50 profiles of the compounds according to general Formula I or Ia of the present invention can be determined for cyclin-dependent kinases CDK2/CycA, CDK4/CycD1, CDK6/CycD1 and CDK9/CycT in enzymatic kinase inhibition assays in vitro. IC50 values as obtained in these assays are used for evaluating the specific selectivity and potency of the compounds with respect to CDK9 inhibition.
Compounds are used as 1×10^−2 M stock solutions in 100% DMSO, 100 μl each in column 2 of three 96-well V-shaped microtiterplates (in the following, said plates are referred to as “master plates”). […]
For the determination of inhibitory profiles, the following 4 protein kinases are used: CDK2/CycA, CDK4/CycD1, CDK6/CycD1 and CDK9/CycT. […] The purity of each kinase is determined by SDS-PAGE/silver staining and the identity of each kinase is verified by western blot analysis with kinase specific antibodies or by mass spectroscopy. […]
Reaction mixtures are incubated at 30° C. for 80 minutes. […] Incorporation of ^33P is determined with a microplate scintillation counter (Microbeta, Wallac).
The median value of the counts in column 1 (n=8) of each assay plate is defined as “low control”. This value reflects unspecific binding of radioactivity to the plate in the absence of a protein kinase but in the presence of the substrate. […]

The test system of the next experiment is TNF α. Nature of the experiment: In vitro human whole blood assay (cytokine inhibition). Type of experiment: cell-based. The following applies: for TNF α levels reduced: human whole blood. As for the experimental part:
[…]. For this purpose, human heparinised whole blood from healthy donors was diluted 1:5 with medium (RPMI 1640, e.g. ATCC #30-2001, supplemented with 4.5 g/L glucose, 4 mM L-glutamine, pyruvate, 1250 U sodium-heparin and 1% Penicillin/Streptomycin), incubated with the anti-inflammatory compound or solvent for 30-60 minutes and then stimulated with 20 ng/ml to 1 μg/ml LPS or SEB for 3 to 48 hours. Supernatants were harvested and analysed for cytokine content, e.g. by ELISA.

The subject of experiment [1] is LPS induced THP-1 macrophages. The experiment can be described thus: In vitro THP-1 assay (LPS-induced cytokine expression). Type of experiment: cell-based, human. As for the experimental part:
The human THP-1 cell line can be utilized as an in vitro model of cytokine expression as mediated by Lipopolysaccharide (LPS) or Tumor Necrosis Factorα [TNFα].
Monocytic THP-1 cells (ATCC; TIB-202) can be differentiated into macrophage-like cells expressing pro-inflammatory cytokines like TNFα, IL6 and IL10 upon induction with LPS or by TNFα (autocrine induction) itself.
THP-1 cells are grown in modified RPMI-1640 medium (ATCC, Cat. No. 30-2001) supplemented with 10% FCS and 1% Pen/Strep. For cytokine inhibition assays, cells are seeded at a density of 5×10^5 cells/ml into 6-well plates in standard growth medium supplemented with 100 ng/ml PMA (Sigma, P1585) to induce differentiation into macrophage-like cells. After 24 hours, the medium is replaced with standard growth medium (without PMA) and the cells are incubated for another 48 hours to complete differentiation.
After 72 h of differentiation, the medium is replaced with serum free growth medium, and CDK-inhibiting compounds as well as reference compounds such as positive and negative controls, each dissolved in DMSO are added at concentrations ranging from 0.5 to 5 μM (final concentration of DMSO in the well is 0.1%). Cells are incubated for 60 min with compounds prior to stimulation with 100 ng/ml LPS (Sigma, L2630) for another 4-48 hours. Supernatants are collected and assayed immediately for cytokine expression, e.g. for TNFα, IL-6 and IL-1β using commercially available sandwich ELISA assays (eBioscience, Cat. No 88-7346, 88-7066, 88-7010) or kept frozen at […] until evaluation.
Concentrations of TNFα, IL6 and IL1β within the cell culture supernatants are measured by using commercial ELISA Kits (eBioscience) according to the manufacturer's instructions.
Compound #133 was administered to differentiated THP-1 cells in triplicates as described above (see section 2.). After 60 min of pre-incubation with test or reference compound (a p38 inhibitor and an IKK-inhibitor, respectively) alone, cells were stimulated with LPS. […]

Another experiment concerns TNFα. Nature of the experiment: LPS in vivo assay (model of cytokine repression in vivo). Set-up: species or system mice. To be noted: 30 mg/kg single p.o. dose 30 min prior to LPS; blood serum 90 min after LPS; ELISA; FIG. 3. The procedure:
For the LPS induced model of septic shock, mice receive an intraperitoneal (i.p.) injection of 30 μg bacterial Lipopolysaccharide (LPS; L2630 SIGMA) in saline. Said LPS-mediated initiation of the inflammatory signalling cascade results in increasing blood serum concentrations of cytokines such as e.g. TNFα, IL-6 and IL1β. Blood can be taken from these animals at defined time points. Thereafter, serum will be separated and the samples can be stored at −80° C. until cytokine concentrations are measured using commercial ELISA assays. (A L Moreira et al., Braz J Med Biol Res 1997; 30:1199-1207).
Wildtype mice (strain C3HeB/FeJ) (age, sex and weight matched) were injected with 30 μg LPS (SIGMA) intraperitoneally. 90 minutes after LPS administration, these animals were anaesthetized with 0.1 ml/10 g bodyweight Ketamine-Rompun (50/20 mg/ml) and blood for serum preparation was taken via cardiac puncture.
Pharmacological treatment groups (n=4) of LPS mice received per os (p.o.) injections of CDK-inhibiting compounds or the vehicle (negative control), respectively. […]
Serum concentrations of TNF alpha and IL6 within the samples were measured by using commercial ELISA Kits (Natutec) according to the manufacturers instructions. […]

Broadly, the IC50 is the concentration needed to halve the response being measured. Lower therefore signals inhibition by little substance.

T1 sequence (P50750 whole entry): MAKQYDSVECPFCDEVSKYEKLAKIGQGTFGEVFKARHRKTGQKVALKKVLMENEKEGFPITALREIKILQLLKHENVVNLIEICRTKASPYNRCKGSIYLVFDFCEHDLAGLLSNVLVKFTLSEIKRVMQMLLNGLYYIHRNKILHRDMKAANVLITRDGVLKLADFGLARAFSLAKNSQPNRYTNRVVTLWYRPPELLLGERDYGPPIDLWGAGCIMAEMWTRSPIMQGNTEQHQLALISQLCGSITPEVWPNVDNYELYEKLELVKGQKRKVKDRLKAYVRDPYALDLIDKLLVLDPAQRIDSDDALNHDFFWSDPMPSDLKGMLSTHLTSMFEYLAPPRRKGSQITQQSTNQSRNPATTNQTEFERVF
T1 sequence (O60563 whole entry partner): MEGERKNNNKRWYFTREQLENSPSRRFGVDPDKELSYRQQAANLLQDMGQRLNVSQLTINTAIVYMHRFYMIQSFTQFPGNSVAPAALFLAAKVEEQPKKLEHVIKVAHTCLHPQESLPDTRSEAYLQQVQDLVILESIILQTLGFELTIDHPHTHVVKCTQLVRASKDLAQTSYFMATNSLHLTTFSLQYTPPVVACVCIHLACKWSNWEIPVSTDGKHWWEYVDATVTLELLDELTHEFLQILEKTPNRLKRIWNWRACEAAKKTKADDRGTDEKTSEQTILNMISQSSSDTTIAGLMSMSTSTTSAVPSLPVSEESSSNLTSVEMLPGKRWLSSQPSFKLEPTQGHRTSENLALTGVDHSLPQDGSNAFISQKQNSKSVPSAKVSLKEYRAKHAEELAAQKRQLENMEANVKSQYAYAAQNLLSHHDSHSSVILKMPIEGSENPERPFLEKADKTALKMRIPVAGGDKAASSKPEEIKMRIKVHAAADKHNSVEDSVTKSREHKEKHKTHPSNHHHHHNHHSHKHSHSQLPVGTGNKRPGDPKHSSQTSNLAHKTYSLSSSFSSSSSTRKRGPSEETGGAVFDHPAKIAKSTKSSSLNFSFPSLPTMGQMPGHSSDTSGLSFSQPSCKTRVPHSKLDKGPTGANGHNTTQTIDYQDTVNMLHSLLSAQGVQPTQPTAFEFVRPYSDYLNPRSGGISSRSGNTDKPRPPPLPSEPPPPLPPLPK

As for `CCn1cnc2c(Nc3cccc(Cl)c3)nc(N[C@@H]3CCCC[C@@H]3N)nc21` [CGP74514A], in the experiment with CDKs, the “inhibitory activity against CDKs 4 and 6” value is on record as “no inhibitory activity”; the “selectivity for a specific CDK” value is “greater selectivity for CDKs 1, 2 and 5”.

For `COc1ccccc1-c1ccnc(Nc2cccc(S(C)(=O)=O)c2)n1` [Compound #133], the IC50 against CDK9/CycT is 37.6 nM; in the experiment on TNF α (Homo sapiens, deduced from the % reduction data), below 3000 nM. Besides, the “TNF α levels reduced” value is given as 15% with TNF α (0.3 μM), 60% in the experiment with TNF α (3 μM), 85% with TNF α (10 μM) and 94% with TNF α (30 μM). In addition, the “signalα signal compared to the DMSO (vehicle control)” value in experiment [1] (at each concentration, FIG. 4) is given as “significantly reduced”. For the same compound, the “effect on TNFα and IL6 protein concentration in the cell supernatant versus vehicle (DMSO)” value in experiment [1] (differentiated THP-1 cells, 60 min pre-incubation, LPS 4-48 h) is “significant inhibitory effect”. For the same compound, the “reduction of LPS-induced cytokine levels (TNFα, IL6, IL1β)” value in experiment [1] (differentiated THP-1 cells, LPS 100 ng/ml, supernatant ELISA, FIG. 4) is reported as “up to 100%”. For the same compound, in the experiment on TNFα, the “reduction of LPS-induced TNFα level (signalα signal) compared to the DMSO vehicle control” value turned out to be 50%.

On to `CN1CC[C@H](c2c(O)cc(O)c3c(=O)cc(-c4ccccc4Cl)oc23)[C@H](O)C1` [Flavopiridol], for which the “selectivity for a specific CDK” value in the experiment with CDKs is “not particularly selective for a specific CDK”.

On to `CC[C@H](CO)Nc1nc(NCc2ccccc2)c2ncn(C(C)C)c2n1` [roscovitine], for which, in the experiment on CDKs, the “inhibitory activity against CDKs 4 and 6” value is on record as “no inhibitory activity”; the “selectivity for a specific CDK” value was “greater selectivity for CDKs 1, 2 and 5”.

With purvanolols, in the experiment with CDKs, the “inhibitory activity against CDKs 4 and 6” value is given as “no inhibitory activity”; the “selectivity for a specific CDK” value is “greater selectivity for CDKs 1, 2 and 5”.
